Test results taken from publication PMC5218480 (PLoS ONE, 2017).

Test system: MV-4-11 cells
Assay: Gene expression microarray analysis (Affymetrix PrimeView) and GSEA
Format: cell-based, human
Set-up: RFU PODN (11730768_x_at) / Fold change /veh PODN (11730768_x_at) / RFU LINC00158 (11744669_a_at) / Fold change /veh LINC00158 (11744669_a_at) / RFU DUSP10 (11751237_a_at) / Fold change /veh DUSP10 (11751237_a_at) / RFU ID3 (11757404_x_at) / Fold change /veh ID3 (11757404_x_at) / RFU PLEKHG5 (11737974_s_at) / Fold change /veh PLEKHG5 (11737974_s_at) / RFU LRRC4B (11730491_at) / Fold change /veh LRRC4B (11730491_at) / RFU GIMAP4 (11747438_a_at) / Fold change /veh GIMAP4 (11747438_a_at) / RFU KRT8 (11758183_x_at) / Fold change /veh KRT8 (11758183_x_at) / RFU CNN1 (11734310_a_at) / Fold change /veh CNN1 (11734310_a_at) / RFU VPS37D (11726825_at) / Fold change /veh VPS37D (11726825_at) / RFU C10orf10 (11716522_x_at) / Fold change /veh C10orf10 (11716522_x_at) / RFU KIR2DL2 /// KIR2DL4 /// KIR2DL5A /// KIR2DL5B /// KIR2DS1 /// KIR2DS2 /// KIR2DS3 /// KIR2DS4 /// KIR3DL3 /// KIR3DL3 /// KIR3DS1 (11738374_at) / Fold change /veh KIR2DL2 /// KIR2DL4 /// KIR2DL5A /// KIR2DL5B /// KIR2DS1 /// KIR2DS2 /// KIR2DS3 /// KIR2DS4 /// KIR3DL3 /// KIR3DL3 /// KIR3DS1 (11738374_at) / RFU C1QL1 (11718748_at) / Fold change /veh C1QL1 (11718748_at) / RFU TMPRSS4 (11747572_a_at) / Fold change /veh TMPRSS4 (11747572_a_at) / RFU HAMP (11756126_x_at) / Fold change /veh HAMP (11756126_x_at) / RFU RNFT2 (11725882_a_at) / Fold change /veh RNFT2 (11725882_a_at) / RFU NR4A2 (11747474_a_at) / Fold change /veh NR4A2 (11747474_a_at) / RFU ABCC12 (11746883_a_at) / Fold change /veh ABCC12 (11746883_a_at) / RFU TMEM136 (11760407_x_at) / Fold change /veh TMEM136 (11760407_x_at) / RFU CLDN22 /// WWC2 (11732394_at) / Fold change /veh CLDN22 /// WWC2 (11732394_at) / RFU HLA-DPB1 (11760878_x_at) / Fold change /veh HLA-DPB1 (11760878_x_at) / RFU SPINT1 (11716480_a_at) / Fold change /veh SPINT1 (11716480_a_at) / RFU GAP43 (11754022_s_at) / Fold change /veh GAP43 (11754022_s_at) / RFU A4GNT (11735810_at) / Fold change /veh A4GNT (11735810_at) / RFU PRB3 (11715151_x_at) / Fold change /veh PRB3 (11715151_x_at) / RFU TUBB4B (11761932_at) / Fold change /veh TUBB4B (11761932_at) / RFU CAPN14 (11732068_a_at) / Fold change /veh CAPN14 (11732068_a_at) / RFU TMCC2 (11721928_a_at) / Fold change /veh TMCC2 (11721928_a_at) / RFU IRGQ (11745062_a_at) / Fold change /veh IRGQ (11745062_a_at) / RFU FAM174B (11720279_a_at) / Fold change /veh FAM174B (11720279_a_at) / RFU TMPRSS4 (11748680_a_at) / Fold change /veh TMPRSS4 (11748680_a_at) / RFU FAM212B (11763350_a_at) / Fold change /veh FAM212B (11763350_a_at) / RFU PLEKHG5 (11743358_a_at) / Fold change /veh PLEKHG5 (11743358_a_at) / RFU ZSCAN30 (11745921_a_at) / Fold change /veh ZSCAN30 (11745921_a_at) / RFU CMKLR1 (11741424_a_at) / Fold change /veh CMKLR1 (11741424_a_at) / RFU LOC101060620 /// MAPK8IP1 (11723275_at) / Fold change /veh LOC101060620 /// MAPK8IP1 (11723275_at) / RFU SPTSSB (11747773_x_at) / Fold change /veh SPTSSB (11747773_x_at) / RFU PRSS12 (11739890_at) / Fold change /veh PRSS12 (11739890_at) / RFU BIN1 (11741810_x_at) / Fold change /veh BIN1 (11741810_x_at) / RFU WNT11 (11732464_a_at) / Fold change /veh WNT11 (11732464_a_at) / RFU C10orf10 (11716521_a_at) / Fold change /veh C10orf10 (11716521_a_at) / RFU C5orf56 (11738089_at) / Fold change /veh C5orf56 (11738089_at) / RFU CYB561 (11721691_x_at) / Fold change /veh CYB561 (11721691_x_at) / RFU ANKRD19P (11752326_a_at) / Fold change /veh ANKRD19P (11752326_a_at) / RFU OR2T12 /// OR2T33 /// OR2T8 (11738714_s_at) / Fold change /veh OR2T12 /// OR2T33 /// OR2T8 (11738714_s_at) / RFU VCAN (11748164_a_at) / Fold change /veh VCAN (11748164_a_at) / RFU JSRP1 (11732532_at) / Fold change /veh JSRP1 (11732532_at) / RFU KRTAP10-11 (11738290_x_at) / Fold change /veh KRTAP10-11 (11738290_x_at) / RFU MYO3A (11730013_a_at) / Fold change /veh MYO3A (11730013_a_at) / RFU EBF3 (11725865_a_at) / Fold change /veh EBF3 (11725865_a_at) / RFU CAMK2N1 (11719241_x_at) / Fold change /veh CAMK2N1 (11719241_x_at) / RFU C5orf56 (11738088_a_at) / Fold change /veh C5orf56 (11738088_a_at) / RFU OLFML3 (11715873_a_at) / Fold change /veh OLFML3 (11715873_a_at) / RFU LOC100653217 /// NTM (11731650_a_at) / Fold change /veh LOC100653217 /// NTM (11731650_a_at) / RFU MAPK11 (11762145_a_at) / Fold change /veh MAPK11 (11762145_a_at) / RFU FIZ1 (11724087_x_at) / Fold change /veh FIZ1 (11724087_x_at) / RFU OASL (11726364_x_at) / Fold change /veh OASL (11726364_x_at) / RFU SOX15 (11748057_x_at) / Fold change /veh SOX15 (11748057_x_at) / RFU CD79A (11719716_a_at) / Fold change /veh CD79A (11719716_a_at) / RFU HIST1H1D (11736915_at) / Fold change /veh HIST1H1D (11736915_at) / RFU CASKIN2 (11723855_a_at) / Fold change /veh CASKIN2 (11723855_a_at) / RFU LOC730098 (11760151_x_at) / Fold change /veh LOC730098 (11760151_x_at) / RFU OR4N2 (11742367_at) / Fold change /veh OR4N2 (11742367_at) / RFU PRRT2 (11749266_a_at) / Fold change /veh PRRT2 (11749266_a_at) / RFU SNX32 (11753110_a_at) / Fold change /veh SNX32 (11753110_a_at) / RFU CDHR5 (11726645_a_at) / Fold change /veh CDHR5 (11726645_a_at) / RFU RCAN1 (11760418_a_at) / Fold change /veh RCAN1 (11760418_a_at) / RFU FAM167A (11723789_a_at) / Fold change /veh FAM167A (11723789_a_at) / RFU FAM26E (11764081_at) / Fold change /veh FAM26E (11764081_at) / RFU ISYNA1 (11749810_s_at) / Fold change /veh ISYNA1 (11749810_s_at) / RFU ACY1 (11761880_at) / Fold change /veh ACY1 (11761880_at) / RFU 11764098_at / Fold change /veh 11764098_at / RFU SAMD14 (11745864_x_at) / Fold change /veh SAMD14 (11745864_x_at) / RFU NPB (11741838_a_at) / Fold change /veh NPB (11741838_a_at) / RFU TMPRSS6 (11731388_a_at) / Fold change /veh TMPRSS6 (11731388_a_at) / RFU KRTAP10-2 (11738614_at) / Fold change /veh KRTAP10-2 (11738614_at) / RFU ARHGAP8 /// PRR5-ARHGAP8 (11727945_x_at) / Fold change /veh ARHGAP8 /// PRR5-ARHGAP8 (11727945_x_at) / RFU KRTAP5-7 /// NADSYN1 (11734609_at) / Fold change /veh KRTAP5-7 /// NADSYN1 (11734609_at) / RFU RASL12 (11751679_a_at) / Fold change /veh RASL12 (11751679_a_at) / RFU CDKN2B (11736163_a_at) / Fold change /veh CDKN2B (11736163_a_at) / RFU PRF1 (11729649_at) / Fold change /veh PRF1 (11729649_at) / RFU, ZNF638 /// ZNF638-IT1 / Fold change vs veh, ZNF638 /// ZNF638-IT1 / RFU, PANK3 / Fold change vs veh, PANK3 / RFU, SH3YL1 / Fold change vs veh, SH3YL1 / RFU, ZEB2 / Fold change vs veh, ZEB2 / RFU, NRIP1 / Fold change vs veh, NRIP1 / RFU, PTTG1IP / Fold change vs veh, PTTG1IP / RFU, CAPN2 / Fold change vs veh, CAPN2 / RFU, MED14 / Fold change vs veh, MED14 / RFU, SNORA58 / Fold change vs veh, SNORA58 / RFU, C1orf63 / Fold change vs veh, C1orf63 / RFU, LRRFIP1 / Fold change vs veh, LRRFIP1 / RFU, NDUFAF7 / Fold change vs veh, NDUFAF7 / RFU, SLC12A2 / Fold change vs veh, SLC12A2 / RFU, IBTK / Fold change vs veh, IBTK / RFU, ESF1 / Fold change vs veh, ESF1 / Fold change vs veh, TMEM50B / RFU, TAOK1 / Fold change vs veh, TAOK1 / RFU, ACBD3 / Fold change vs veh, ACBD3 / RFU, TMA16 / Fold change vs veh, TMA16 / RFU, RWDD3 / Fold change vs veh, RWDD3 / RFU, BCAT1 / Fold change vs veh, BCAT1 / RFU, EDEM3 / Fold change vs veh, EDEM3 / RFU, TMEM33 / Fold change vs veh, TMEM33 / RFU, WDR75 / Fold change vs veh, WDR75 / RFU, AHCTF1 / Fold change vs veh, AHCTF1 / RFU, TFRC / Fold change vs veh, TFRC / RFU, ZDHHC17 / Fold change vs veh, ZDHHC17 / RFU, NOM1 / Fold change vs veh, NOM1 / RFU, ARL8B / Fold change vs veh, ARL8B / RFU, ZBTB11 / Fold change vs veh, ZBTB11 / RFU, TAMM41 / Fold change vs veh, TAMM41 / RFU, KIAA1704 /// LOC100996395 / Fold change vs veh, KIAA1704 /// LOC100996395 / RFU, ING1 / Fold change vs veh, ING1 / RFU, TRMT61B / Fold change vs veh, TRMT61B / RFU, FUBP3 / Fold change vs veh, FUBP3 / RFU, TP53 / Fold change vs veh, TP53 / RFU, TNKS2 / Fold change vs veh, TNKS2 / RFU, ZFP14 / Fold change vs veh, ZFP14 / RFU, ACTR2 / Fold change vs veh, ACTR2 / RFU, PPP3R1 / Fold change vs veh, PPP3R1 / RFU, PIK3R1 / Fold change vs veh, PIK3R1 / RFU, HNRNPA1 / Fold change vs veh, HNRNPA1 / RFU, RNF170 / Fold change vs veh, RNF170 / RFU, ZNF28 / Fold change vs veh, ZNF28 / RFU, RNGTT / Fold change vs veh, RNGTT / RFU, OGT / Fold change vs veh, OGT / RFU, BRD1 / Fold change vs veh, BRD1 / RFU, MARS / Fold change vs veh, MARS / RFU, ZNF655 / Fold change vs veh, ZNF655 / RFU, FAHD1 / Fold change vs veh, FAHD1 / RFU, BDP1 / Fold change vs veh, BDP1 / RFU, LRRCC1 / Fold change vs veh, LRRCC1 / RFU, ARID1A / Fold change vs veh, ARID1A / RFU, ZNF146 / Fold change vs veh, ZNF146 / RFU, ZNF330 / Fold change vs veh, ZNF330 / RFU, GPN3 / Fold change vs veh, GPN3 / RFU, C9orf123 / Fold change vs veh, C9orf123 / RFU, N4BP2L2 / Fold change vs veh, N4BP2L2 / RFU, ARFIP1 / Fold change vs veh, ARFIP1 / RFU, FAM179B / Fold change vs veh, FAM179B / RFU, BCL10 / Fold change vs veh, BCL10 / RFU, UHRF1BP1L / Fold change vs veh, UHRF1BP1L / RFU, BET1 / Fold change vs veh, BET1 / RFU, CNOT2 / Fold change vs veh, CNOT2 / RFU, ZNF268 / Fold change vs veh, ZNF268 / Fold change vs veh, ZNF507 / RFU, DGCR2 / Fold change vs veh, DGCR2 / RFU, WDSUB1 / Fold change vs veh, WDSUB1 / Fold change vs veh, HSP90B1 /// MIR3652 / RFU, ADSS / Fold change vs veh, ADSS / RFU, GK / Fold change vs veh, GK / RFU, ZNF148 / Fold change vs veh, ZNF148 / RFU, TAF9 / Fold change vs veh, TAF9 / RFU, SLC1A5 / Fold change vs veh, SLC1A5 / RFU, SLMO2 / Fold change vs veh, SLMO2 / RFU, ABCC4 / Fold change vs veh, ABCC4 / RFU, LOC101060439 /// RAP1B / Fold change vs veh, LOC101060439 /// RAP1B / RFU, RFX7 / Fold change vs veh, RFX7 / RFU, GTPBP10 / Fold change vs veh, GTPBP10 / RFU, CNEP1R1 / Fold change vs veh, CNEP1R1 / RFU, BIVM-ERCC5 /// ERCC5 / Fold change vs veh, BIVM-ERCC5 /// ERCC5 / RFU, ILF3 / Fold change vs veh, ILF3 / RFU 11762660_at / Fold change /veh 11762660_at / RFU VCAN (11757783_s_at) / Fold change /veh VCAN (11757783_s_at) / RFU DDX43 (11728927_at) / Fold change /veh DDX43 (11728927_at) / RFU KRT8 (11758188_x_at) / Fold change /veh KRT8 (11758188_x_at) / RFU NKD1 (11759106_at) / Fold change /veh NKD1 (11759106_at) / RFU SRD5A1 (11742802_a_at) / Fold change /veh SRD5A1 (11742802_a_at) / RFU TPSAB1 /// TPSB2 (11721975_s_at) / Fold change /veh TPSAB1 /// TPSB2 (11721975_s_at) / RFU GSTM3 (11746129_a_at) / Fold change /veh GSTM3 (11746129_a_at) / RFU IL23R (11737362_x_at) / Fold change /veh IL23R (11737362_x_at) / RFU TMEM51 (11727254_a_at) / Fold change /veh TMEM51 (11727254_a_at) / RFU PIWIL2 (11732686_x_at) / Fold change /veh PIWIL2 (11732686_x_at) / RFU ORM1 (11744905_x_at) / Fold change /veh ORM1 (11744905_x_at) / RFU CCDC152 (11743942_at) / Fold change /veh CCDC152 (11743942_at) / RFU ECM1 (11717891_a_at) / Fold change /veh ECM1 (11717891_a_at) / RFU IL23R (11748794_a_at) / Fold change /veh IL23R (11748794_a_at) / RFU TNFAIP8L3 (11732012_x_at) / Fold change /veh TNFAIP8L3 (11732012_x_at) / RFU MBOAT4 (11741988_at) / Fold change /veh MBOAT4 (11741988_at) / RFU 11764193_at / Fold change /veh 11764193_at / RFU TMEM53 (11763286_at) / Fold change /veh TMEM53 (11763286_at) / RFU MAGEB2 (11727129_at) / Fold change /veh MAGEB2 (11727129_at) / RFU TMEM200A (11744735_a_at) / Fold change /veh TMEM200A (11744735_a_at) / RFU CCDC152 (11751479_a_at) / Fold change /veh CCDC152 (11751479_a_at) / RFU FAM211A (11726209_a_at) / Fold change /veh FAM211A (11726209_a_at) / RFU RGS16 (11746705_a_at) / Fold change /veh RGS16 (11746705_a_at) / RFU VCAN (11755009_s_at) / Fold change /veh VCAN (11755009_s_at) / RFU RHOB (11743442_s_at) / Fold change /veh RHOB (11743442_s_at) / RFU RGS16 (11720943_a_at) / Fold change /veh RGS16 (11720943_a_at) / RFU RGS16 (11720944_at) / Fold change /veh RGS16 (11720944_at) / RFU, VPS4B / Fold change vs veh, VPS4B / RFU, CREB1 / Fold change vs veh, CREB1 / RFU, DNAJC13 / Fold change vs veh, DNAJC13 / RFU, GNAQ / Fold change vs veh, GNAQ / RFU, CDK5R1 / Fold change vs veh, CDK5R1 / RFU, ZRANB3 / Fold change vs veh, ZRANB3 / RFU, CUL4A / Fold change vs veh, CUL4A / RFU, CCNY / Fold change vs veh, CCNY / RFU, UFL1 / Fold change vs veh, UFL1 / RFU, COG3 / Fold change vs veh, COG3 / RFU, DIAPH2 / Fold change vs veh, DIAPH2 / RFU, SKA2 / Fold change vs veh, SKA2 / RFU, AFF3 / Fold change vs veh, AFF3 / RFU, LMF1 / Fold change vs veh, LMF1 / RFU, IPO11 / Fold change vs veh, IPO11 / RFU, DFFB / Fold change vs veh, DFFB / RFU, FOXP1 / Fold change vs veh, FOXP1 / RFU, CARD8 / Fold change vs veh, CARD8 / RFU, STRN3 / Fold change vs veh, STRN3 / RFU, ADK / Fold change vs veh, ADK / RFU, RASSF2 / Fold change vs veh, RASSF2 / RFU, WIPF1 / Fold change vs veh, WIPF1 / RFU, LARP1B / Fold change vs veh, LARP1B / RFU, RASA1 / Fold change vs veh, RASA1 / RFU, RB1 / Fold change vs veh, RB1 / RFU, PPFIA1 / Fold change vs veh, PPFIA1 / RFU, MAT2A / Fold change vs veh, MAT2A / RFU, CCT5 / Fold change vs veh, CCT5 / RFU, WDR92 / Fold change vs veh, WDR92 / RFU, CUX1 / Fold change vs veh, CUX1 / RFU, TTC7A / Fold change vs veh, TTC7A / RFU, TMEM135 / Fold change vs veh, TMEM135 / RFU, DEPTOR / Fold change vs veh, DEPTOR / RFU, CPM / Fold change vs veh, CPM / RFU, DNAJB6 / Fold change vs veh, DNAJB6 / RFU, CACNA2D3 / Fold change vs veh, CACNA2D3 / RFU, DTX4 / Fold change vs veh, DTX4 / RFU, TFCP2 / Fold change vs veh, TFCP2 / RFU, GMCL1 /// GMCL1P1 / Fold change vs veh, GMCL1 /// GMCL1P1 / RFU, AEBP2 / Fold change vs veh, AEBP2 / RFU, SNHG1 /// SNORD22 /// SNORD25 /// SNORD26 /// SNORD27 /// SNORD28 /// SNORD29 /// SNORD31 / Fold change vs veh, SNHG1 /// SNORD22 /// SNORD25 /// SNORD26 /// SNORD27 /// SNORD28 /// SNORD29 /// SNORD31 / Fold change (Aza/veh), C12orf56 (ProbeSet 11735607_a_at) / Fold change (ACY-1035/veh), C12orf56 (ProbeSet 11735607_a_at) / Fold change (Aza/veh), FGFR1OP (ProbeSet 11751329_s_at) / Fold change (ACY-1035/veh), FGFR1OP (ProbeSet 11751329_s_at) / Fold change (Aza/veh), VPS36 (ProbeSet 11739960_a_at) / Fold change (ACY-1035/veh), VPS36 (ProbeSet 11739960_a_at) / RFU SYPL1 (11715823_x_at) / Fold change /veh SYPL1 (11715823_x_at) / RFU IGFBP7 (11715501_s_at) / Fold change /veh IGFBP7 (11715501_s_at) / RFU REEP3 (11722064_at) / Fold change /veh REEP3 (11722064_at) / RFU IGLL1 (11728026_x_at) / Fold change /veh IGLL1 (11728026_x_at): dose or concentration left out as unconfirmed
Settings: MV-4-11 cells, 48 hours

In the case of Nc1ncn([C@@H]2O[C@H](CO)[C@@H](O)[C@H]2O)c(=O)n1 [azacitidine], the “Fold change /veh IGLL1 (11728026_x_at)” value is reported as 0.66.
